The values below come from ChEMBL document CHEMBL5226341, “Discovery of a Potent FLT3 Inhibitor (LT-850-166) with the Capacity of Overcoming a Variety of FLT3 Mutations” (J Med Chem, 2021).

One series has as its system Panc02. The series is described as follows: Antiproliferative activity against mouse Panc02 cells assessed as reduction in cell viability measured after 72 hrs by CellTiterGlo luminescent assay. As to conditions: Panc02, 72 h. The class given is functional, cell-based. Background: Cellular ATP, detected with luciferase, serves as a proxy for viable cell number.
A short description of series [1]: AUC (0 to t) in Sprague-Dawley rat at 1 mg/kg, iv measured for 24 hrs by LC-MS/MS analysis. The class given is ADME, organism-based. Set-up: dose 1 mg/kg, time 24 hrs, route iv. The conditions noted are these: in vivo.
Series [2] can be described thus: Induction of apoptosis in mouse HCD-57 cells at 100 nM incubated for 24 hrs by AnnexinV-FITC/PI staining based flow cytometry. The class given is toxicity, cell-based. The conditions noted are these: hcd-57, 24 h, 0.1 µM. (Flow cytometry measures light scatter and fluorescence of single cells or particles in a stream.)
Series [3] deals with MV4-11. The series is described as follows: Induction of apoptosis in human MV4-11 cells assessed as late apoptotic cells at 100 nM incubated for 24 hrs by AnnexinV-FITC/PI staining based flow cytometry (reference value: 4.2%). The class given is functional.
Series [4] can be described thus: Toxicity in BALB/c mouse xenografted with human MV4-11 cells assessed as neutrophil count at 15 mg/kg, iv for 21 days. It is filed as organism-based. As to conditions: in vivo, 504 h, time 21 day.
In series [5] the test system is MV4-11. Briefly: Induction of apoptosis in human MV4-11 cells assessed as necrotic cells at 50 nM incubated for 24 hrs by AnnexinV-FITC/PI staining based flow cytometry (reference value: 0.45%). The class given is functional.
Series [6] relates to HCD-57. The series is described as follows: Induction of apoptosis in mouse HCD-57 cells harboring FLT3-ITD mutant at 100 nM incubated for 24 hrs by AnnexinV-FITC/PI staining based flow cytometry. It is filed as functional, cell-based.
Series [7] has as its system Receptor-type tyrosine-protein kinase FLT3 (Homo sapiens), P36888 [UNDEFINED MUTATION]. The class given is cell-based. The conditions noted are these: BaF3, dose 0.1-100 nM, time 4.0 hrs.
The test system is the same in series [8]. Briefly: Inhibition of FLT3-ITD-F691L mutant (unknown origin) transformed in mouse BaF3 cells assessed as inhibition of FLT3 phosphorylation at Tyr589/591 residue incubated for 4 hrs by western blot analysis. As to conditions: dose 0.1-100 nM. It is filed as cell-based.
Series [9] can be described thus: Toxicity in ICR mouse assessed as change in body weight at 100 mg/kg, iv administered as single dose and measured for 14 days. As to conditions: in vivo, 336 h, time 14 day. The class given is organism-based.
Series [10] has as its target Receptor-type tyrosine-protein kinase FLT3 (Homo sapiens) (UniProt P36888). The series is described as follows: Inhibition of FLT3 in human MV4-11 cells assessed as inhibition of ERK phosphorylation at Thr202/Tyr204 residue at 10 nM incubated for 4 hrs by western blot analysis. The class given is cell-based. On the technique in general: Immunoblotting shows a protein as a band on a membrane.

The test system of series [11] is HCD-57. Briefly: Induction of cell cycle arrest in mouse HCD-57 cells harboring FLT3-ITD mutant at 100 nM incubated for 24 hrs by PI staining based flow cytometry. It is filed as functional.
Series [12] can be described thus: Toxicity in ICR mouse assessed as behavioural changes at 100 mg/kg, iv administered as single dose and measured for 14 days. The class given is organism-based. As to conditions: in vivo, 336 h, time 14 day.
Series [13] deals with BaF3. The series is described as follows: Antiproliferative activity against mouse BaF3 cells harboring FLT3-ITD-F691L mutant assessed as reduction in cell viability incubated for 72 hrs by CellTiterGlo luminescent assay. The class given is functional, cell-based. As to conditions: BaF3, 72 h.
Series [14] has as its system BaF3. The series is described as follows: cells. The conditions noted are these: Mus musculus, BaF3, 72 h.
Description: Antiproliferative activity against mouse BaF3 cells harboring FLT3-ITD-D835V mutant assessed as reduction in cell viability measured after 72 hrs by CellTiterGlo luminescent assay
Series [15] relates to MV4-11. The series is described as follows: Antiproliferative activity against human MV4-11 cells assessed as inhibition of cell growth incubated for 72 hrs by CellTiterGlo luminescent assay. The class given is functional, cell-based. The conditions noted are these: MV4-11, 72 h.
For series [16], the system named is Receptor-type tyrosine-protein kinase FLT3 (Homo sapiens), P36888 [UNDEFINED MUTATION]. It is filed as cell-based. The conditions noted are these: BaF3, dose 0.1-100 nM, time 4.0 hrs. The source holds these as a separate data set.
Series [17] in a line: Initial drug concentration in Sprague-Dawley at 1 mg/kg, iv by LC-MS/MS analysis. It is filed as ADME, organism-based. The conditions noted are these: rat, in vivo.

Activity calls are given as the source filed them. The rule behind the calls is not given here.

Receptor-type tyrosine-protein kinase FLT3 (Homo sapiens), P36888 [UNDEFINED MUTATION], sequence (P36888 whole entry, looked up, stated change not applied): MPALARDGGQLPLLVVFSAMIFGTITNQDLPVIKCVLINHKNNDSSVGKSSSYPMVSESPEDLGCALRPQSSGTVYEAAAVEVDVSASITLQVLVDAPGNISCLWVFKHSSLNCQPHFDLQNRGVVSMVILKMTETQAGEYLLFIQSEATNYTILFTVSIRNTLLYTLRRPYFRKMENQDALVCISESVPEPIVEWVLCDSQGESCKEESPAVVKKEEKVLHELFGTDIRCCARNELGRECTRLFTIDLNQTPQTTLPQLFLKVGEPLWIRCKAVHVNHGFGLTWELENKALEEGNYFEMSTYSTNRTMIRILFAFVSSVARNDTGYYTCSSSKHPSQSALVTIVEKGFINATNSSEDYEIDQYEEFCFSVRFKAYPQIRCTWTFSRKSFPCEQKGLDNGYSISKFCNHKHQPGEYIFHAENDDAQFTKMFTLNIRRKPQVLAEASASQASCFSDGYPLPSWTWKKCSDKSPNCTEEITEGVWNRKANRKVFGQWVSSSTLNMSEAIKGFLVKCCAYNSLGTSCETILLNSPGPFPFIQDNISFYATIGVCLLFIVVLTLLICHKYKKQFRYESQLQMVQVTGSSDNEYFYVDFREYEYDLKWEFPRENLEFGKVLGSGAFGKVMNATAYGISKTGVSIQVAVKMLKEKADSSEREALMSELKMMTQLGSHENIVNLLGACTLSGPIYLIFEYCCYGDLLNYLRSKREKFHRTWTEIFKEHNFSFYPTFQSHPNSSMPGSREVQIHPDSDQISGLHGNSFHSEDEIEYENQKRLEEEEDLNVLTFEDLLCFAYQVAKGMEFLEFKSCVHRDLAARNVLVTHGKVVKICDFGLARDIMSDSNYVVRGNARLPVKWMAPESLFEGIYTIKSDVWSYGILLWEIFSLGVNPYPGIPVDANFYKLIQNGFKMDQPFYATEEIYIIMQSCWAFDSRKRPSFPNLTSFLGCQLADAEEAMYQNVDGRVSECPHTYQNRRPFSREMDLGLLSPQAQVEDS
Receptor-type tyrosine-protein kinase FLT3 (Homo sapiens), sequence (P36888 whole entry): as the sequence (P36888 whole entry, looked up, stated change not applied) above

The term IC50 denotes the concentration at which inhibition is half-maximal. A word on the AUC(0-t): it is exposure summed from dosing to a finite time, without extrapolation to infinity. A lower AUC(0-t) goes with low exposure. As usually defined, the inhibition is the share of the control response that was lost under treatment. As for `CCN1CCN(c2ccc(C(=O)Nc3cc(-c4ccc5ncn(Cc6c(Cl)cccc6Cl)c5c4)[nH]n3)cc2)CC1`, the half-maximal inhibitory concentration (IC50) with Panc02 was 2740 nM; in the series with BaF3 [13], 8.3 nM; with BaF3 [14], less than 1.5 nM; in the series with MV4-11 [15] it was 2.93 nM. The AUC(0-t) at 24 h in series [1] was 0.391 µg·h/mL. For the same compound, the Activity entry in [2] was “Non-Toxic”; in the series on MV4-11 [3], 24.5%; in series [4] it was “Non-Toxic”; in the series with MV4-11 [5] it was 0.87%; in series [9], “Non-Toxic”; in [12], “Non-Toxic”. For the same compound, the outcome in the series on HCD-57 [6] and with HCD-57 [11] was Active. Besides, the inhibition result in series [7] was “Dose-Dependent Effect”; in [8], “Dose-Dependent Effect”; in [10], 100%; in series [16] it was “Dose-Dependent Effect”. In [17], this compound gave a C0 of 0.368 µg/mL.
